Experiments:
Type in all cases: cell-based, human
NLRP1^DR = assay: NLRP1 PYD-DR1 / NLRP1^DR phosphorylation (GFP fusion, immunoblot, PhosTag SDS-PAGE) in N-TERT cells
Excerpt: (§1) The following antibodies were used in this study: cleaved PARP1 (Abclonal, #WH162766), Cleaved CASP3 (Abclonal, #WH154646), Full length GSDMD-FL (Abcam, #ab210070), IL1β p17 specific (CST, #83186S), CARD8 (Abcam, CARD8-NT: ab19485, CARD8-CT: ab241186), DPP9 (Abcam, ab226334), c-Myc (Santa Cruz Biotechnology, #sc-40), HA tag (Santa Cruz Biotechnology, #sc-805), GAPDH (Santa Cruz Biotechnology, #sc-47724), ASC (Adipogen, #AL-177), CASP1 (Santa Cruz Biotechnology, #sc-622), 11_1B (R&D systems, #AF-201), FLAG (SigmaAldrich, #F3165), NLRP1 (R&D systems, #AF6788), IL18 (Abcam ab207324), cleaved GSDMD-NT (Asp275) (Cell Signaling Technology, #36425), RPL31 (Abclonal, #WH162766), CASP7 (Abcam, ab255818), CASP8 (Abcam, ab32397), cleaved CASP3 (Cell Signaling Technology, #9664). All horseradish peroxidase (HRP)— conjugated secondary antibodies were purchased from Jackson Immunoresearch (goat anti-mouse IgG: 115-035-166; goat anti-rabbit IgG: 111-035-144; and donkey anti-goat IgG: 705-005-147). Blue-Native PAGE was carried out using the Native-PAGE system (ThermoFisher) with 10-20 μg of total lysate. For SDS-PAGE using whole cell lysates, cells were resuspended in tris-buffered saline 1% NP-40 with protease inhibitors (Thermo Scientific, #78430). Protein concentration was determined using the Bradford assay (Thermo Scientific, #23200) and […] of protein loaded, a part from cleaved GSDMD-NT visualisation where […] of protein was used. All primary antibodies were used at 250 ng/ml. Visualisation of ASC oligomerization was previously described (Robinson et al., 2020). For analysis of IL1β and IL-18 cleavage in the media by immunoblotting, samples were concentrated using filtered centrifugation (Merck, Amicon Ultra, #UFC5003BIK). Protein samples were run using immunoblotting, and then visualized using a ChemiDoc Imaging system (Bio-Rad). PhosTag SDS-PAGE was carried out using homemade 10% SDS-PAGE gel, with addition of Phos-tag Acrylamide (Wako Chemicals, AAL-107) to a final concentration of 30 μM and manganese chloride(II) (Sigma-Aldrich, #63535) to 60 μM.
Cells were directly harvested using Laemmli buffer, lysed with an ultrasonicator, and loaded into the Phos-tag gel to run. Once the run was completed, the polyacrylamide gel was washed in transfer buffer with 10 mM EDTA twice, subsequently washed without EDTA twice, blotted onto 0.45 μm PVDF membranes (Bio-rad), blocked with 3% milk, and incubated with primary and corresponding secondary antibodies.

[1] = tested on: immortalized keratinocytes (N-TERT); assay: Pyroptosis / apoptosis in N-TERT keratinocytes (morphology, ASC-GFP, PI, Annexin V, immunoblot); conditions: for morphological hallmarks of inflammasome activation and pyroptotic cell death: membrane ballooning, ASC-GFP specks, PI uptake
Excerpt: as §1
N-TERT-ASC-GFP cells were seeded at a cell density of 3000 cells/well of a 96 black well plate (PerkinElmer, CellCarrier-96 Ultra, #6055300). The next morning cells were treated with chemicals for 6 h or treated in the evening for 24 h before staining. 1 hour before observing the cells on the microscope the cells were stained with 1 μg/ml dilution of propidium iodide (PI, Abcam #ab14083), 10 ng/ml dilution of Hoechst 33342 (Life Technologies, #H21492) or stained with Annexin V Alexa Flour 647 (Life technologies, #A23204) according to the manufacturer's protocol. Stained cells were then imaged on a high content screening microscope (Perkin Elmer Operetta CLS imaging system). Images were then stored and analyzed using the Harmony software (Version 6). Fluorescent and brightfield images acquired on the Operetta high content screening microscope were further analyzed using a scoring system to categorize the percentages of live, apoptotic and pyroptotic cells. For 3 fields of view per treatment the number of live cells per field was counted from the merge of the brightfield and ASC-GFP channels. Only cells which contained ASC-GFP throughout the cytoplasm and nucleus were classed as “live”. The number of pyroptotic cells was calculated using the merge of the brightfield and ASC-GFP channels. Only the cells with GFP specks were classed as “pyroptotic”. The number of apoptotic cells was calculated using the merge of the brightfield, ASC-GFP and Annexin V channels. Cells that were stained positive for Annexin V but without a GFP speck were classified as “apoptotic”. Images of ASC-GFP specks were acquired in 3 random fields in 4′,6-diaminidino-2-phenylindole (DAPI, 358 nm/461) and GFP (469 nm/525 nm) channels using the EVOS microscope (FL Auto M5000, #AM F5000) according to the manufacturer's protocol. […]

N-TERT cells [2] = assay: Secreted IL1β / inflammasome activation in N-TERT cells; conditions: for effect on ANS- and TNFα+DT-triggered NLRP1 activation: N-TERTs, BTZ 0.5 μM, MLN4924 0.25 μM
Description: (§2) To measure secreted cytokine and chemokine levels a human IL1β enzyme linked immunosorbent assay (ELISA) kit (BD, #557953), human IL-18 ELISA kit (MBL, #7620) or an Immune Monitoring 65-Plex Human ProcartaPlex Panel (EPX650-10065-901) were used according to manufacturer's protocols. Further analysis of Luminex or ELISA profiling of samples was performed using heatmap and PCA analysis on Clustervis (biitdotcsdotutdotee/clustvis/) [Somani et al., Proceeding of SSIC (2019)].
as §1

293T-ASC-GFP-NLRP1 = conditions: for effect on ANS- and TNFα+DT-triggered NLRP1 activation: 293T-NLRP1-ASC-GFP reporter cells, BTZ 0.5 μM, MLN4924 0.25 μM; for ASC-GFP speck formation, screen of cytotoxic chemicals: ANS 1 μM, LTM 1 μg/ml, STS 1 μM
N-TERT cells [3] = assay: UVB triggered cell death and IL-1beta release in N-TERT cells
Description: For UVA and UVB irradiation experiments, cells were seeded 24 hours prior to irradiation, and washed once in phosphate buffered saline pH 7.4 before being exposed to indicated dose of irradiation using a BIO-SUN microprocessor controlled, cooled UV irradiation system (BIO-SUN, Vilber). After exposure, PBS was replaced by keratinocyte medium and cells were incubated for indicated time.
as §2

NLRP1-NT = assay: NLRP1 cleavage / NLRP1-NT level by immunoblot
Excerpt: as §1

CC1=C[C@H]2O[C@@H]3[C@H](O)C[C@](C)([C@@]2(CO)[C@H](O)C1=O)[C@]31CO1 [DON, deoxynivalenol]
NLRP1^DR hyperphosphorylation (NLRP1^DR; NLRP1DR-GFP in N-TERT cells, PhosTag SDS-PAGE): also led to NLRP1^DR hyperphosphorylation | band shift (phosphorylation) of PYD-DR1-GFP (NLRP1^DR; NLRP1 KO N-TERT cells expressing GFP-tagged PYD-DR1): band shift in PYD-DR1-GFP | morphological hallmarks of inflammasome activation and pyroptotic cell death [1]: caused prominent inflammasome activation and pyroptosis

COC(=O)C[C@](O)(CCC(C)(C)O)C(=O)O[C@@H]1C(OC)=C[C@]23CCCN2CCc2cc4c(cc2[C@H]13)OCO4 [harringtonin, Harringtonine]
morphological hallmarks of inflammasome activation and pyroptotic cell death [1]: none of the inhibitors that block the ribosome at the pre-elongation stages, including harringtonin, blasticidin and G418 caused any pyroptosis

CC[C@H]1CN2CCc3cc(OC)c(OC)cc3[C@@H]2C[C@@H]1C[C@H]1NCCc2cc(OC)c(OC)cc21 [emetine]
effect on ANS-induced IL1β secretion (N-TERT cells [2]; 150 μM emetine): completely abrogated

Cc1cn(-c2cc(NC(=O)c3ccc(C)c(Nc4nccc(-c5cccnc5)n4)c3)cc(C(F)(F)F)c2)cn1 [Nilotinib, 4-methyl-N-[3-(4-methylimidazol-1-yl)-5-(trifluoromethyl)phenyl]-3-[(4-pyridin-3-ylpyrimidin-2-yl)amino]benzamide]
effect on ANS-dependent ASC-GFP speck formation (293T-ASC-GFP-NLRP1; Nilotinib 0.1 μM): abrogated all measures of ANS- and DT-dependent inflammasome activation | effect on VbP-triggered pyroptosis (N-TERT cells [2]): had no discernible effect on VbP-triggered pyroptosis | effect on ANS- and DT-dependent inflammasome activation (ASC oligomerization, IL1β secretion) (N-TERT cells [2]; wild-type N-TERT cells): abrogated all measures of ANS- and DT-dependent inflammasome activation | NLRP1 PYD-DR1 phosphorylation under inhibitor (NLRP1^DR): loss of NLRP1 PYD-DR1 phosphorylation

CCCn1/c(=N/C(=O)c2cccc(C(N)=O)c2)[nH]c2ccccc21 [TAKinib]
effect on ANS-induced IL1β secretion (N-TERT cells [2]; selective TAK1 inhibitor): does not have an effect on ANS-induced IL1β secretion

CN(CC[C@H](N)CC(=O)N[C@H]1C=C[C@H](n2ccc(N)nc2=O)O[C@@H]1C(=O)O)C(=N)N [blasticidin, Blasticidin]
morphological hallmarks of inflammasome activation and pyroptotic cell death [1]: none of the inhibitors that block the ribosome at the pre-elongation stages, including harringtonin, blasticidin and G418 caused any pyroptosis

NS(=O)(=O)OC[C@@H]1C[C@@H](n2ccc3c(N[C@H]4CCc5ccccc54)ncnc32)C[C@@H]1O [MLN4924, ((1S,2S,4R)-4-(4-(((S)-2,3-dihydro-1H-inden-1-yl)amino)-7H-pyrrolo[2,3-d]pyrimidin-7-yl)-2-hydroxycyclopentyl)methyl sulfamate]
effect on ANS- and TNFα+DT-triggered NLRP1 activation (293T-ASC-GFP-NLRP1): abrogated ANS- and TNFα+DT-triggered NLRP1 activation | effect on UVB-dependent NLRP1 activation (N-TERT cells [3]): abrogated | effect on UVB triggered cell death (PI positive cells) (N-TERT cells [3]; 18-hour incubation): blocks UVB triggered cell death and IL-1beta release | effect on UVB triggered IL-1beta release (N-TERT cells [3]; IL1β ELISA of cell media): blocks UVB triggered cell death and IL-1beta release | effect on ribotoxin-triggered NLRP1-NT destabilization (NLRP1-NT): could be blocked | effect on ANS- and TNFα+DT-triggered NLRP1 activation (N-TERT cells [2]): abrogated ANS- and TNFα+DT-triggered NLRP1 activation

CN[C@@H]1C[C@H]2O[C@@](C)([C@@H]1OC)n1c3ccccc3c3c4c(c5c6ccccc6n2c5c31)C(=O)NC4 [STS, Staurosporine]
ASC-GFP speck formation, screen of cytotoxic chemicals (293T-ASC-GFP-NLRP1): failed to induce ASC-GFP specks

CC(C)C[C@H](NC(=O)[C@H](Cc1ccccc1)NC(=O)c1cnccn1)B(O)O [bortezomib, [(1R)-3-methyl-1-[[(2S)-3-phenyl-2-(pyrazine-2-carbonylamino)propanoyl]amino]butyl]boronic acid]
effect on ANS- and TNFα+DT-triggered NLRP1 activation (293T-ASC-GFP-NLRP1): abrogated ANS- and TNFα+DT-triggered NLRP1 activation | effect on ribotoxin-triggered NLRP1-NT destabilization (NLRP1-NT): could be blocked | effect on ANS- and TNFα+DT-triggered NLRP1 activation (N-TERT cells [2]): abrogated ANS- and TNFα+DT-triggered NLRP1 activation

C/C(=C\[C@H](C)C(=O)C[C@H](O)CC1CC(=O)NC(=O)C1)[C@@H]1OC(=O)/C=C/CC/C=C/C=C\[C@@H]1C [LTM, Lactimidomycin]
ASC-GFP speck formation, screen of cytotoxic chemicals (293T-ASC-GFP-NLRP1): identified two hits | mode of cell death (apoptosis / pyroptosis) ([1]; Annexin V staining and PI inclusion, immunoblot markers): caused both apoptosis and pyroptosis | morphological hallmarks of inflammasome activation and pyroptotic cell death [1]: rapidly induced the morphological hallmarks of inflammasome activation and pyroptotic cell death | fraction of pyroptotic cells ([1]; single cell level, compared with VbP): comparable to that induced by VbP

From patent US20240148728A1, “NOVEL METHOD TO BLOCK IN[…] DEATH AND IL-1BETA SECRETION CAUSED BY […] UV I[…] GENETIC AND CHEMICAL INHIBITORS OF ZAKA AND THE NLRP1 INFLAMMASOME” (priority 2021, published 2024)
